{"source": "paper PMC3189933", "about": "“Acylpeptide Hydrolase Inhibition as Targeted Strategy to Induce Proteasomal Down-Regulation” (PLoS ONE, 2011)", "key": {"[1]": {"tested_on": "polyubiquitinylated proteins in Caco-2 cells", "assay": "Protein ubiquitinylation in Caco-2 cells (immunoblot)", "format": "cell-based, human", "settings": "48 h, 200 µM SsCEI 4 or t10c12-CLA, mixture, 100 µM ebelactone, 10 µM MG132, species 66 kDa to 160 kDa", "text": "(§1) The following antibodies were used: anti-APEH antibody (sc-102311; Santa Cruz Biotechnology); anti-NF-κB/p65 antibody (Thermo Scientific); anti-p21Waf1 antibody (Exbio); pan Ab-5 anti-actin antibody (clone ACTN05, Thermo Scientific); and monoclonal antibodies against polyubiquitinylated proteins conjugated with horseradish peroxidase (FK2H, Enzo, Life Science). The ΔF508CFTR-3HA protein was detected with an anti HA monoclonal antibody (Covance)."}, "APEHSs": {"tested_on": "APEHSs", "assay": "Inhibition of S. solfataricus APEH (APEHSs), Ac-Leu-pNA substrate", "format": "biochemical, Sulfolobus solfataricus", "protocol": "APEH activity was expressed in IU.\nProtease inhibitor activities of the SsCEI peptides and the CLA isomers were carried out using a fixed amount of APEH or partially purified proteasome (3–5 nM and 0.12 mg/mL, respectively), and increasing the SsCEI and CLA isomer concentrations. Mixtures were pre-incubated for 30 min at 37°C before the addition of the substrate, and the enzymatic activities were followed as described above. Protease inhibitor activities of the SsCEI peptides and the CLA isomers were determined towards APEHSs. The protease and increasing concentrations of the inhibitors were mixed and preincubated for 30 min at 80°C before the addition of the specific substrate. The residual enzymatic activity was determined using the assay procedure described above.\nAll data were obtained from triplicate analyses of three different preparations. Data were presented as means ±S.D. Statistical analysis and IC50 values were calculated with the SigmaPlot 10.0 software through a non-linear curve-fitting method and using a simple binding isotherm equation. Groups were compared by Student's t test, and P<0.05 was considered as significant."}, "[2]": {"tested_on": "proteasome CT-like activity in BHK cells", "assay": "CT-like proteasome activity in BHK cells", "format": "cell-based, Baby Hamster", "settings": "50 and 100 µM, 48 h", "protocol": "(§2) The cells were plated in 12-well plates, to a confluence of 60% for the 24-h incubations, and 40% for 48-h exposure to PIs. These treatments were initiated 24-h after the plating of the cells. Phase-contrast images of the cells were taken just before the lysis of the cells for protein analysis, using a Lica DM6000 inverted microscope."}, "BHK cells": {"tested_on": "BHK cells", "assay": "Cytotoxicity in BHK cells", "format": "cell-based, Baby Hamster", "settings": "100 µM, 24 h or 48 h; data not shown", "protocol": "as §2"}, "Caco-2 cells": {"tested_on": "Caco-2 cells", "assay": "LDH release cytotoxicity assay in Caco-2 cells", "settings": "48 h", "quoted_text": "The release of LDH was used as the marker for cell toxicity [48]. The culture supernatants were sampled at the end of the incubations and centrifuged (4,000×g, 5 min, and 4°C). Aliquots of the clear supernatant (10 µL) were incubated with 190 µL reaction buffer (200 mM Tris/HCl, pH 8.0, 0.7 mM p-iodonitrotetrazolium violet, 50 mM L-lactic acid, 0.3 mM phenazine methoxysulphate, 0.4 mM NAD,) for 30 min at 37°C. Absorbance was measured at 490 nm and the results were expressed as percentages of total LDH release from control cultures treated with 1% (w/v) Triton X-100 and calculated as: [(experimental value - blank value)/(total lysis -blank value)−100]."}, "p21Waf1 in Caco-2 cells": {"tested_on": "p21Waf1 in Caco-2 cells", "assay": "Immunoblot of p21Waf1 in Caco-2 cells", "format": "cell-based, human", "settings": "200 µM alone, 48 h", "text": "as §1"}}}
{"smiles": "CCCCC/C=C\\C=C\\CCCCCCCCC(=O)O", "note": "[t10c12-CLA, trans10-cis12 CLA]", "values": [{"measurement": "polyubiquitin conjugates in cell extract", "setting": "[1]", "value": "presence of high-molecular-mass immunoreactive species"}, {"measurement": "IC50", "setting": "APEHSs; Ac-Leu-pNA 0.1 mM, 25 mM Tris-HCl pH 7.5, pre-incubated 30 min at 80°C, mean ± SD, read-out: IC50 towards APEHSs", "value": "80 ± 2", "unit": "µM"}, {"measurement": "Ki", "setting": "APEHSs; Lineweaver–Burk equation, Ac-Leu-pNA, read-out: Ki towards APEHSs", "value": "140 ± 20", "unit": "µM"}, {"measurement": "inhibition mechanism towards APEHSs", "setting": "APEHSs; Michaelis–Menten / Lineweaver–Burk analysis", "value": "non-competitive"}, {"measurement": "proteasome CT-like activity in BHK cells", "setting": "[2]", "value": "dose-dependent inhibition"}, {"measurement": "cytotoxic effects in BHK cells", "setting": "BHK cells", "value": "without any cytotoxic effects"}, {"measurement": "toxicity (LDH release) compared with MG132", "setting": "Caco-2 cells; 200 µM SsCEI 4 or t10c12-CLA, 100 µM ebelactone, MG132 10 µM", "value": "significantly lower than that observed in culture incubated with MG132"}, {"measurement": "cytotoxic effect (LDH activity levels)", "setting": "Caco-2 cells; up to highest concentration 200 µM", "value": "not associated with any cytotoxic effect"}, {"measurement": "increase of p21Waf1", "setting": "p21Waf1 in Caco-2 cells", "value": "two"}]}
